Experimental data from patent US20150004237A1, “CELLULOSE DERIVATIVES FOR INHIBITING CRYSTALLIZATION OF POORLY WATER-SOLUBLE DRUGS” (Virginia Tech Intellectual Properties, Inc., priority 2012, published 2015).
Values after ≈ are worked out from the molar mass of the structure shown. Values joined by “and” are separate entries in the source; they are usually repeats but may differ in a detail not shown here. Equal entries are not always repeated. Where two headings read alike, the source gives them in different places.

What was measured:
[1] = cited from earlier work
[2] = Ellagic acid release profile; assay type: physicochemical; conditions: pH 6.8 buffer
[3] = Crystal growth rate of ritonavir (seeded desupersaturation); assay type: physicochemical
[4] = pH 6.8; cited from earlier work
[5] = Nucleation-induction time of ritonavir from supersaturated solution; assay type: physicochemical; conditions: initial 20 μg/mL, no polymer, pH 6.8, 37° C.
Description: The period between the generation of supersaturation and initiation of nucleation was determined by monitoring the absorbance at 280 nm using an ultraviolet/visible spectrometer, fiber optic coupled with a dip probe (SI Photonics® Tucson, Ariz.). Wavelength scans were acquired every 45 seconds. Precipitation was characterized by an increased extinction at 280 nm wavelength. A supersaturated solution of ritonavir was generated by adding 0.4 mL of ritonavir dissolved in methanol at a concentration 4 mg/mL, to 80 mL sodium phosphate buffer, pH 6.8, at 37° C., providing an initial solution concentration of ritonavir of 20 μg/mL. The drug of compositions of the invention can be present in any amount ranging from about 0-100 μg/mL, such as from about 5-10 μg/mL, or from 15-20 μg/mL, or from 25-30 μg/mL, or from 35-50 μg/mL, or from 55-75 μg/mL, or from 80-90 μg/mL. Depending on the drug compound and the types and amounts of polymers used, the most preferred concentration of drug in the compositions ranges from about 5-25 μg/mL. A syringe pump (Harvard Apparatus, Holliston, Mass.) was used to control the rate of addition of organic solution of ritonavir to buffer solution; the flow rate was 0.20 mL/min. […] The ability of the various polymers to affect the nucleation of ritonavir was evaluated using a polymer concentration of 5 μg/mL. […]

[6] = Ritonavir seed crystal size and morphology by SEM; assay type: physicochemical; conditions: After Crystal Growth (S = 15.4)
From the text: Characterization of Seed Crystals. Ritonavir seed crystals were characterized using scanning electron microscopy (SEM), powder X-ray diffraction analysis (PXRD), and differential scanning calorimetry (DSC). SEM was used to determine the size and shape of ritonavir crystals, while PXRD and DSC were used to evaluate the polymorph of the seed crystals. Ritonavir was used as received from the manufacturer, and prior to use, the seeds were sieved to a size below 250 p.m. Seed crystals used for SEM analysis were prepared by dispersing the seeds in water and equilibrating the water-seed crystal suspension for approximately 24 h. A few drops of the suspension were placed on a glass slide and dried overnight in a vacuum oven at room temperature for approximately 24 h. Before SEM imaging, the glass slides were mounted using double-sticky copper tape and sputter-coated with platinum for 60 s. SEM imaging was performed using an FEI NOVA nanoSEM field emission SEM using an Everhart-Thornley (ET) detector and a through-thelens detector (TLD). The following imaging parameters were used: 5 kV accelerating voltage, approximately 4-5 mm working distance, beam spot size of 3, 30 μm aperture, and 100-10,000× magnifications. The SEM images were analyzed using ImageJ, processing and analysis in Java (National Institutes of Health (NIH)). Several representative samples of seed crystals were obtained before and after crystal growth in the absence and presence of predissolved additive. For each sample, a total of 50 seeds were analyzed to ensure a representative sample, and the average aspect ratio of the crystals was estimated from the average length and width of the crystals.
The polymorphic form of the seed crystals after the crystal growth experiment was also confirmed to be Form II by PXRD. The average length, width, and aspect ratio of ritonavir seed crystals before and after the crystal growth experiment in the presence of the CAP Adp 0.85, Pn-IPAAmd, and CAP Adp 0.85/Pn-IPAAmd polymer combination at initial S values of 7.6 and 15.4 are summarized in Table 6.

[7] = Dynamic light scattering particle size of ritonavir during de-supersaturation; assay type: physicochemical; conditions: ritonavir 25 μg/mL
Description: Dynamic light scattering (DLS) was used to monitor changes in particle size as a function of time during de-supersaturation experiments. DLS experiments were performed using a Nano-Zetasizer (Nano-ZS) and its software, dispersion technology software (DTS). A 173° backscatter detector was used in order to minimize the signal from large dust particles or other large contaminants. A quartz flow-through cuvette, coupled with a pump was used for continuous sampling. […] Particle size experiments were performed in the absence and presence of pre-dissolved polymers. As an example, ritonavir was used at an initial concentration of 25 μg/mL with a polymer concentration of 50 μg/mL. The buffer solution was allowed to equilibrate at 37° C. prior to addition of solubilized ritonavir. Data collection began after generation of supersaturation. A stir-plate was used to stir the solution at a speed of 400 rpm.

[8] = cited from earlier work; remark: listed apart in the source
[9] = Theoretical amorphous solubility with moisture sorption effect; assay type: physicochemical; conditions: 37° C.
From the text: Amorphous solubility can be approximated by estimating the free energy difference between crystalline and amorphous forms using the Hoffman equation: […]
The ratio of amorphous and crystalline solubility (Samorphous/Scrystalline) is then estimated from the free energy difference (ΔGa→σ) calculated from heat of fusion (ΔHf) and melting temperature (Tm) of the crystalline material determined from DSC analysis, as well as the experimentally determined crystalline solubility:
See Murdande, S. B., Pikal, M. J. Shanker, R. M. & Bogner, R. H., “Solubility Advantage of amorphous pharmaceuticals: I. A thermodynamic analysis,” J. Pharm. Sci., 99(3): 1254-1264, (2009) (“Murdande I”) and Murdande, S. B., Pikal, M. J. Shanker, R. M. & Bogner, R. H., “Solubility Advantage of amorphous pharmaceuticals: II. Application of quantitative thermodynamic relationships for prediction of solubility enhancement in structurally diverse insoluble pharmaceuticals,” Pharm. […]
The moisture sorption profile of amorphous ritonavir was determined at 37° C. using a TA Q5000 dynamic vapor sorption analyzer (TA Instruments, New Castle, Del.) equipped with a humidity controlled chamber and an ultrasensitive thermobalance. […] Subsequently, the moisture sorption isotherm was measured by equilibrating the sample under controlled relative humidity (RH) ranging from 5% RH to 95% RH, in 10% RH intervals. […]

[10] = Quercetin release profile; assay type: physicochemical; conditions: pH 6.8 buffer, Que 0.07 mg/mL
Description: In the measurement of drug release profiles, maximum Que concentration was fixed at 0.07 mg/mL in pH 6.8 buffer solution. The UV-vis absorption of the solution was measured and plotted vs. time. Release profiles were determined.

[11] = pH 6.8
[12] = Crystal growth rate of celecoxib (seeded desupersaturation); assay type: physicochemical; conditions: supersaturation ratio of 1.2
physchem = conditions: 37 °C, pH 6.8, aqueous buffer, thermodynamic from solid
[13] = Formation of X-ray amorphous resveratrol-polymer dispersion by rotary evaporation; assay type: physicochemical; conditions: classification system of Van Eerdenbrugh et al.
Description: All mixtures were visually inspected to confirm that the resveratrol and the polymers were fully dissolved, and that the systems formed uniform one-phase solutions. […] The samples were then placed under vacuum for 24 h to remove any residual solvents. The obtained material was subsequently cryomilled in a liquid nitrogen bath for a total milling time of 4 min. Powder X-Ray Diffraction. Immediately after cryomilling, the samples were analyzed using a Shimadzu XRD-6000 (Shimadzu Corporation, Kyoto, Japan) equipped with a Cu-Kα source and set in Bragg-Brentano geometry between 5° and 35° 2θ at 8°/min with a 0.04° step size. Samples were also analyzed over time following the storage treatments listed above. […] Samples where sharp peaks were observed were deemed crystalline, and those samples that lacked sharp peaks were labeled X-ray amorphous. Physical mixtures of select resveratrol-polymer systems were made to provide a fully crystallized reference. The percent crystallized for certain samples was estimated from a calibration curve generated from analysis of the diffraction patterns of the different solid dispersions, spiked with increasing levels of crystalline resveratrol. […] The crystallinity of these calibration samples was measured immediately after preparation.

[14] = Crystal growth rate of efavirenz (seeded desupersaturation); assay type: physicochemical; conditions: supersaturation ratio of 1.2
[15] = After Crystal Growth (S = 7.6), values from ref 31 / ref 38
[16] = After Crystal Growth (S = 7.6), values from ref 31 / ref 38, listed as RTV
[17] = Before Crystal Growth, values from ref 31

In the case of `O=c1oc2c(O)c(O)cc3c(=O)oc4c(O)c(O)cc1c4c23` [EA, Ellagic Acid], the aqueous solubility ([1]; pH 7.4) is given as 9.3 µg/mL (≈ 30.8 µM), the “EA release after 24 h” value [2] is given as 7% and the “time of maximum EA release” value [2] is given as 2 h. The “maximum EA release” value ([2]; 25° C., EA 0.05 mg/mL) was 11%.
For `C=CC(=O)O` [Acrylic acid], the pKa [1] is listed as 4.76.
In the case of Ritonavir, the “initial bulk crystal growth rate of ritonavir” value ([3]; 100 mM sodium phosphate buffer, initial 10 μg/mL, no polymer, first 2 min) is given as 1.56 µg/mL/min, the “normalized crystal growth rate of ritonavir” value ([3]; supersaturation ratio of 1.2) is given as 3.94 μg mL^−1 min^−1 m^−2 and the “Equilibrium solubility of ritonavir, no polymer (Table 7)” value [4] is given as 1.3 ± 0.10 µg/mL. For the same molecule, the “induction time of ritonavir” value [5] was “approximately 119 minutes”, the aspect ratio [6] was 12.1 and the crystal morphology [6] was “needle-like”. The length [6] was 50.9 ± 14.4 μm, the width [6] was 4.2 ± 1.2 μm and the “time particle size was maintained” value ([7]; no polymer) was about 100 min. For the same molecule, the “size of ritonavir particles” value ([7]; polymer 50 μg/mL or none, pH 6.8, 37° C., initially formed particles) was 350-450 nm, the aspect ratio [8, 15] was 8.8 and 7.7 and the crystal morphology [8, 15] was “needle-like”. The length [8, 15] was 50.4 ± 18.6 μm, the width [8, 15] was 5.7±1.4 μm and the aspect ratio [8, 16] was 8.8. The width [8, 16] was 5.7 ± 1.4 μm, the aspect ratio [8, 17] was 7.7 and the crystal morphology [8, 17] was “needle-like”. For the same molecule, the length [8, 17] was 44.4 ± 15.2 μm, the width [8, 17] was 5.8 ± 1.9 μm and the “calculated amorphous solubility with moisture sorption correction” value [9] was 20.6 µg/mL.
In the case of `O=c1c(O)c(-c2ccc(O)c(O)c2)oc2cc(O)cc(O)c12` [Que, Quercetin], the “Que dissolution / release after 1 h” value [10] is reported as 0.7%.
In the case of Poly vinylpyrrolidone K 29/32 [PVP], the “Equilibrium solubility of ritonavir in the presence of polymer (Table 7)” value [4] is listed as 1.2 ± 0.05 µg/mL.
For “poly(N-iso-propylacrylamide) [Pn-IPAAmd]”, the “Equilibrium solubility of efavirenz in the presence of polymer” value [11] is given as 8.7 ± 0.07 µg/mL, the “Solubility of Ritonavir in the presence of polymer” value [11] is given as 1.3 ± 0.01 µg/mL and the “Equilibrium solubility of ritonavir in the presence of polymer (Table 7)” value [4] is given as 1.3 ± 0.01 µg/mL.
For `Cc1ccc(-c2cc(C(F)(F)F)nn2-c2ccc(S(N)(=O)=O)cc2)cc1` [celecoxib], the “normalized crystal growth rate of celecoxib” value [12] was 18.20 μg mL^−1 min^−1 m^−2 and the solubility thermodynamic at 48 h (physchem) was 1.5 µg/mL (≈ 3.93 µM).
For `Oc1ccc(/C=C/c2cc(O)cc(O)c2)cc1` [Resveratrol], the “crystallization tendency during production” value [13] was “rapid crystallizer”.
For `O=C1Nc2ccc(Cl)cc2[C@@](C#CC2CC2)(C(F)(F)F)O1` [efavirenz], the “normalized crystal growth rate of efavirenz” value [14] was 59.32 μg mL^−1 min^−1 m^−2 and the solubility thermodynamic at 48 h (physchem) was 8.2 µg/mL (≈ 26 µM).
